Experimental data: PubChem BioAssay (NCI)
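Cultured in 96-well plates, cells were exposed to test compound for 48 hours across five concentrations. TGI denotes the concentration required for complete inhibition of growth.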

Tests used:
Test in all cases: NCI anticancer screen, dose series, 48 h
NCI/ADR-RES ovarian = tested on: NCI/ADR-RES ovarian
EKVX NSCLC = tested on: EKVX NSCLC
HS 578T breast = tested on: HS 578T breast
A498 renal = tested on: A498 renal
OVCAR-4 ovarian = tested on: OVCAR-4 ovarian
UO-31 renal = tested on: UO-31 renal
HCC-2998 colon = tested on: HCC-2998 colon
PC-3 prostate = tested on: PC-3 prostate
HT29 colon = tested on: HT29 colon
MDA-MB-435 = tested on: MDA-MB-435
SK-MEL-28 melanoma = tested on: SK-MEL-28 melanoma
IGROV1 ovarian = tested on: IGROV1 ovarian
ACHN renal = tested on: ACHN renal
CCRF-CEM leukemia = tested on: CCRF-CEM leukemia
SK-MEL-2 melanoma = tested on: SK-MEL-2 melanoma
OVCAR-5 ovarian = tested on: OVCAR-5 ovarian
HOP-92 NSCLC = tested on: HOP-92 NSCLC
NCI-H522 lung = tested on: NCI-H522 lung
KM12 colon = tested on: KM12 colon
MOLT-4 leukemia = tested on: MOLT-4 leukemia
SF-539 CNS = tested on: SF-539 CNS
K-562 leukemia = tested on: K-562 leukemia
HCT-15 colon = tested on: HCT-15 colon
DU-145 prostate = tested on: DU-145 prostate
786-0 renal = tested on: 786-0 renal
RXF 393 renal = tested on: RXF 393 renal
M14 melanoma = tested on: M14 melanoma
NCI-H460 lung = tested on: NCI-H460 lung
MCF7 breast = tested on: MCF7 breast
HCT-116 colon = tested on: HCT-116 colon
OVCAR-3 ovarian = tested on: OVCAR-3 ovarian
SK-OV-3 ovarian = tested on: SK-OV-3 ovarian
SK-MEL-5 melanoma = tested on: SK-MEL-5 melanoma
RPMI-8226 leukemia = tested on: RPMI-8226 leukemia
MDA-MB-231 breast = tested on: MDA-MB-231 breast
SF-295 CNS = tested on: SF-295 CNS
HL-60(TB) leukemia = tested on: HL-60(TB) leukemia
T-47D breast = tested on: T-47D breast
MDA-N = tested on: MDA-N
OVCAR-8 ovarian = tested on: OVCAR-8 ovarian
SW-620 colon = tested on: SW-620 colon
SR leukemia = tested on: SR leukemia
SF-268 CNS = tested on: SF-268 CNS
NCI-H23 lung = tested on: NCI-H23 lung
TK-10 renal = tested on: TK-10 renal
SNB-75 CNS = tested on: SNB-75 CNS
CAKI-1 renal = tested on: CAKI-1 renal
U251 CNS = tested on: U251 CNS
HOP-62 NSCLC = tested on: HOP-62 NSCLC
LOX IMVI melanoma = tested on: LOX IMVI melanoma
NCI-H226 lung = tested on: NCI-H226 lung
UACC-257 melanoma = tested on: UACC-257 melanoma
SN12C renal = tested on: SN12C renal
COLO 205 colon = tested on: COLO 205 colon
BT-549 breast = tested on: BT-549 breast
SNB-19 CNS = tested on: SNB-19 CNS
UACC-62 melanoma = tested on: UACC-62 melanoma
MALME-3M melanoma = tested on: MALME-3M melanoma
A549 NSCLC = tested on: A549 NSCLC

Measured: TGI

O=C1/C(=C/c2ccc(Cl)cc2)N=C(c2ccccc2)N1c1nc2ccccc2s1
97.1 µM: A498 renal
57.7 µM: MOLT-4 leukemia
75.1 µM: NCI-H522 lung
88.2 µM: SK-MEL-2 melanoma
18.4 µM: HL-60(TB) leukemia
75.7 µM: HS 578T breast
not listed: SN12C renal | COLO 205 colon | BT-549 breast | SNB-19 CNS | UACC-62 melanoma | MALME-3M melanoma | A549 NSCLC
> 100 µM: all other assays above

C=CCn1c(C23CC4CC(CC(C4)C2)C3)n[nH]c1=S
53.9 µM: HL-60(TB) leukemia
29.3 µM: SR leukemia
not listed: EKVX NSCLC | HOP-92 NSCLC | SK-MEL-5 melanoma | CAKI-1 renal | A549 NSCLC
> 100 µM: all other assays above

COc1cc(/C=C/C(=O)OCCc2ccccc2)ccc1O
44.3 µM: HT29 colon
33.9 µM: ACHN renal | SNB-19 CNS
29.7 µM: SK-OV-3 ovarian | CAKI-1 renal
41.3 µM: HCC-2998 colon
30.2 µM: SNB-75 CNS
31.6 µM: HCT-116 colon
36.1 µM: LOX IMVI melanoma
85.4 µM: K-562 leukemia
65.9 µM: RPMI-8226 leukemia
32.4 µM: UACC-257 melanoma
50 µM: HS 578T breast
33.5 µM: EKVX NSCLC
36.7 µM: SN12C renal | SF-539 CNS
79.3 µM: OVCAR-8 ovarian
33.7 µM: SK-MEL-5 melanoma
31.7 µM: MALME-3M melanoma
33.4 µM: HOP-62 NSCLC
27.3 µM: UO-31 renal | MDA-MB-435
26.9 µM: SK-MEL-28 melanoma
36.9 µM: OVCAR-3 ovarian
28 µM: PC-3 prostate | IGROV1 ovarian
42.7 µM: SK-MEL-2 melanoma
41.2 µM: SW-620 colon
35.3 µM: SF-295 CNS
22.1 µM: NCI-H522 lung
28.1 µM: BT-549 breast
29.5 µM: U251 CNS
37.9 µM: MOLT-4 leukemia
29 µM: M14 melanoma
34.8 µM: COLO 205 colon
40.2 µM: HL-60(TB) leukemia
37.1 µM: NCI-H460 lung
30.3 µM: KM12 colon
44.6 µM: HCT-15 colon
34.4 µM: MDA-N
38.9 µM: A549 NSCLC
26.1 µM: OVCAR-4 ovarian
30.4 µM: DU-145 prostate | 786-0 renal
33.2 µM: T-47D breast
36.5 µM: NCI-H23 lung
30.6 µM: MDA-MB-231 breast
28.3 µM: TK-10 renal
83.5 µM: SR leukemia
60.6 µM: NCI/ADR-RES ovarian
26 µM: UACC-62 melanoma
44.8 µM: MCF7 breast
32.8 µM: OVCAR-5 ovarian
47.4 µM: SF-268 CNS

CO/N=C(/C(=O)N(C(=O)/C(=N/OC)c1csc(NC(c2ccccc2)(c2ccccc2)c2ccccc2)n1)n1cnn(CC(=O)OC(C)(C)C)c1=O)c1csc(NC(c2ccccc2)(c2ccccc2)c2ccccc2)n1
3.44 µM: PC-3 prostate
3.96 µM: BT-549 breast
3.92 µM: SK-MEL-2 melanoma
not listed: HOP-92 NSCLC | SR leukemia
> 10 µM: all other assays above
